Results reported in paper PMC6017299, “Ent-Clerodane Diterpenes from the Bark of Croton oligandrus Pierre ex Hutch. and Assessment of Their Cytotoxicity against Human Cancer Cell Lines” (Molecules : A Journal of Synthetic Chemistry and Natural …, 2018).
Read-outs that look alike come from different tables or passages of the source.

What was measured:
Format in all cases: cell-based
[1] = test system: A549 (adenocarcinoma human alveolar basal epithelial cell line); experiment: MTT cell viability assay, A549 cells; settings: 0 to 200 µM, 48 h, mean ± SEM (n = 3), read-out: IC50 (50% cell growth inhibition) A549
Procedure: (§1) The in vitro activity of the crude extracts, fractions and isolated compounds from C. oligandrus on metabolic cell viability was assessed against A549 (adenocarcinoma human alveolar basal epithelial cell 211 line), MCF7 (human breast adenocarcinoma cell line), PC3 (human prostate cancer cell line) and PNT2 212 (human normal prostate epithelium cell line). The resulting inhibitory activity is termed “cytotoxic activity” throughout the manuscript. The cell lines were grown in RPMI medium supplemented with L-glutamine (2 mM), penicillin (100 U/mL), streptomycin (100 μg/mL) and 10% foetal bovine serum (FBS) and cultured at 37 °C, 5% CO2 and 95% humidity. For experimental use, the cells were seeded into 96-well plates (1.2 × 10^4/well) and incubated for 24 h. Cells were then treated with crude extract (0–250 µg/mL) for 24 h or isolated compounds (0 to 200 µM) for 48 h and the cell viability was measured using the MTT assay. The formazan crystals formed were dissolved in DMSO and optical density was read at 570 nm using a ClarioStar plate reader, Manchester, UK. Three individual wells were assayed per treatment; the assay was repeated three times and cytotoxic activity was determined using the percentage of absorbance compared to the control cells [(absorbance of treated cells/absorbance of untreated cells) × 100]. Doxorubicin was used as the positive control and the IC50 value of each test sample was calculated using the software Graphad Prism 7.02, La Jolla, CA, USA.

[2] = test system: MCF7 (human breast adenocarcinoma cell line); experiment: MTT cell viability assay, MCF7 cells; settings: 0 to 200 µM, mean ± SEM (n = 3), read-out: IC50 (50% cell growth inhibition) MCF-7
Procedure: (§2) The resulting inhibitory activity is termed “cytotoxic activity” throughout the manuscript. The cell lines were grown in RPMI medium supplemented with L-glutamine (2 mM), penicillin (100 U/mL), streptomycin (100 μg/mL) and 10% foetal bovine serum (FBS) and cultured at 37 °C, 5% CO2 and 95% humidity. For experimental use, the cells were seeded into 96-well plates (1.2 × 10^4/well) and incubated for 24 h. […] The formazan crystals formed were dissolved in DMSO and optical density was read at 570 nm using a ClarioStar plate reader, Manchester, UK. Three individual wells were assayed per treatment; the assay was repeated three times and cytotoxic activity was determined using the percentage of absorbance compared to the control cells [(absorbance of treated cells/absorbance of untreated cells) × 100].

[3] = test system: PC3 (human prostate cancer cell line); experiment: MTT cell viability assay, PC3 cells; settings: 0 to 200 µM, 48 h, mean ± SEM (n = 3), read-out: IC50 (50% cell growth inhibition) PC-3
Procedure: as §1

[4] = test system: PNT2 (human normal prostate epithelium cell line); experiment: MTT cell viability assay, PNT2 cells; settings: 0 to 200 µM, 48 h, noncancerous cells, mean ± SEM (n = 3), read-out: IC50 (50% cell growth inhibition) PNT2
Procedure: as §1

[5] = test system: A549, MCF7, PC3 and PNT2 cell lines; experiment: MTT cell viability assay, statements across the cell line panel; settings: Homo sapiens, positive control, read-out: IC50 range between the cell lines used
Procedure: as §2

[6] = Homo sapiens, PC-3, isolated compounds
[7] = Homo sapiens, PNT2, isolated compounds
[8] = Homo sapiens, A549, isolated compounds
[9] = Homo sapiens, MCF7, isolated compounds, 48 h

Row | Structure (SMILES) | IC50 ([1]; isolated compounds) | IC50 ([2]; Homo sapiens, MCF7, 48 h, isolated compounds) | IC50 [3, 6] | IC50 [4, 7] | IC50 ([2]; isolated compounds, 48 h) | IC50 ([3]; isolated compounds) | IC50 ([4]; isolated compounds) | IC50 [1, 8] | IC50 [2, 9] | IC50 [5]
1 | COC(=O)C1=CC(=O)C=C2C1(C(=O)OC)CCC(C)C21CC(c2ccoc2)OC1=O (centres unmarked) [Compound 1, megalocarpoidolide D] | 63.8 ± 13.8 µM | 136 ± 22.7 µM | > 200 µM | > 200 µM | – | – | – | – | – | –
2 | COC(=O)C1=CC(=O)C=C2C1(C(=O)OC)CCC(C)C21CC(c2ccoc2)OC1=O (stereo not drawn) [Compound 2, 12-epi-megalocarpoidolide D] | 139 ± 22.1 µM | – | – | – | 171 ± 51.4 µM | > 200 µM | > 200 µM | – | – | –
3 | COC(=O)C1=CCCC2C1(C(=O)OC)CCC(C)C21CC(c2ccoc2)OC1=O (stereo not drawn) [Compound 5, 12-epi-crotocorylifuran] | – | – | > 200 µM | > 200 µM | – | – | – | 107 ± 27.2 µM | > 200 µM | –
4 | COc1cc(C=O)ccc1O [Compound 8, vanillin] | – | – | > 200 µM | > 200 µM | – | – | – | > 200 µM | > 200 µM | –
5 | CC(=O)O[C@H]1CC[C@]2(C)[C@H]3CC[C@]4(C)C(=CC[C@@]5(C(=O)O)CCC(C)(C)C[C@H]54)[C@]3(C)CC[C@H]2C1(C)C [Compound 9, acetyl-aleuritolic acid] | – | – | 172 ± 39.7 µM | 168 ± 25.3 µM | – | – | – | 137 ± 18.9 µM | > 200 µM | –
6 | C=C(C)[C@@H]1CC[C@]2(C)CC[C@]3(C)[C@H](CC[C@@H]4[C@@]5(C)CC[C@H](O)C(C)(C)[C@@H]5CC[C@]43C)[C@@H]12 [Compound 10, lupeol] | – | – | 136 ± 21.1 µM | > 200 µM | – | – | – | > 200 µM | > 200 µM | –
7 | COc1cccc2c1C(=O)c1c(O)c3c(c(O)c1C2=O)C[C@@](O)(C(=O)CO)C[C@@H]3O[C@H]1C[C@H](N)[C@H](O)[C@H](C)O1 [Doxorubicin, reference compound] | – | – | 16.4 ± 2.9 µM | 1.5 ± 0.3 µM | – | – | – | 1.3 ± 0.3 µM | 0.7 ± 0.1 µM | 0.7 to 16.4 µM
